Experimental data from patent EP1272659B1, “EARLY DIAGNOSIS OF M[…] HUMAN BEINGS” (Università degli Studi di Roma " Tor Vergata", priority 2000, dated 2001).

Biological target: T1, FAAH (anandamide hydrolase; arachidonoylethanolamide amidohydrolase, EC 3.5.1.4) in human lymphocyte homogenates (Homo sapiens, UniProt O00519)
T1 construct: Lymphocytes were purified from peripheral blood by gradient centrifugation; from tissue; host or cells: human peripheral blood lymphocytes of pregnant women, homogenate
T1 sequence (O00519 1-579): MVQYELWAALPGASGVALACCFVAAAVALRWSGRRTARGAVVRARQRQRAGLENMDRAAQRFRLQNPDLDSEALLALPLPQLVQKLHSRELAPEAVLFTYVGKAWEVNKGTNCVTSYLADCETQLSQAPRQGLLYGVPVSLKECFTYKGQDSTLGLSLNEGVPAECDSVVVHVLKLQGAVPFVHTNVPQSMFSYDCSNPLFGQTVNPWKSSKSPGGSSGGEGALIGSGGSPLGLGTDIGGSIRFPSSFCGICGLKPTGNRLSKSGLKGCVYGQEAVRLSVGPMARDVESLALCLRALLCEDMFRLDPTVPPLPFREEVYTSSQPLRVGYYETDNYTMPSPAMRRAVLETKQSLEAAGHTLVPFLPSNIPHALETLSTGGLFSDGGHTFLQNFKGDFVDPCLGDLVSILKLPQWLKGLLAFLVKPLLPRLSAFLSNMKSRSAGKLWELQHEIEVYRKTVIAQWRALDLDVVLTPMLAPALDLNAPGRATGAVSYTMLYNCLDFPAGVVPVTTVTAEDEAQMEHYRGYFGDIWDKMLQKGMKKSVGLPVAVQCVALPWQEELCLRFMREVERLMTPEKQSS
Assay: Kinetic analysis of FAAH activity in human lymphocyte homogenates: release of [1-14C]arachidonic acid from [1-14C]anandamide, reversed phase HPLC
Assay type: biochemical
Conditions: <8 weeks of pregnancy; for apparent maximum velocity (Vmax): lymphocyte homogenates
Protocol: The activity of FAAH (arachidonoylethanolamide amidohydrolase, EC 3.5.1.4) in human lymphocyte homogenates (20 µg/test) was determined by measuring the release of [1-^14C] arachidonic acid from [1-^14C] anandamide (NEN DuPont de Nemours, 52 mCi/mmol), using reversed phase high performance liquid cromatography as reported in Maccarrone et al. 1998.
The difference in FAAH activity between the group of 43 subjects with normal pregnancy (mean value = 169.60 ± 30.20 pmol.min^-1.mg protein^-1) and the group of 7 women who aborted (mean value 60.43 ± 29.34 pmol.min^-1.mg protein^-1) was statistically significant (P<0.0001 by the Mann-Whitney test). Embryonic death occurred approximately 10 days later, i.e. at 8 to 11 weeks for the subjects <7- to <10-week pregnant, respectively. […] On the other hand, the bell-shaped curve found for FAAH activity in normal subjects is frequently observed with biological indicators of the first trimester of pregnancy, such as the beta-subunit of human chorionic gonadotropin (Goldstein in Obstet Gynecol 1994).
FAAH (arachidonoylethanolamide amidohydrolase, EC 3.5.1.4) activity in human lymphocyte homogenates (20 µg/test) was determined by measuring the release of [1-^14C]arachidonic acid from [1-^14C] anandamide (NEN DuPont de Nemours, 52 mCi/mmol), using reverse phase high performance liquid cromatography as reported (Maccarrone et al. 1998). It has to be pointed out that the use of [^3H] anandamide, measuring the release of [^3H]arachidonic acid, yields the same results.

SMILES: CCCCC/C=C\C/C=C\C/C=C\C/C=C\CCCC(=O)NCCO [anandamide, arachidonoylethanolamide]
- apparent maximum velocity (Vmax) (subjects who miscarried): 75 ± 8 pmol.min^-1.mg protein^-1
- apparent maximum velocity (Vmax) (subjects with normal gestation): 187 ± 20 pmol.min^-1.mg protein^-1
- Km (read-out: apparent Michaelis-Menten constant (Km), lymphocyte homogenates (20 µg/test), same value for subjects with normal gestation and those who miscarried): 8 ± 1 µM
